Reference: ChEMBL document CHEMBL5338752, “Carbamate JNK3 Inhibitors Show Promise as Effective Treatments for Alzheimer's Disease: In Vivo Studies on Mouse Models” (J Med Chem, 2023)
Active and inactive are the calls of the source. The rule behind the calls is not given here.

Legend:
[1] = Apparent permeability of the compound across apical side to basolateral side in human Caco-2 cells; assay type: ADME, cell-based
[2] = tested on: Neuron; assay: Inhibition of anisomycin induced JNK activation in rat cortex neuron cells assessed as fold reduction in Jun phosphorylation levels at 10 to 20 uM preincubated for 90 mins followed by anisomycin addition and measured after 40 mins by Western blot analysis; assay type: cell-based; conditions: dose 10-20 µM, time 130.0 min
[3] = tested on: Neuron; assay: Inhibition of apoptosis in rat cortex neuron cells assessed as prevention of A-beta (1 to 42) induced cleaved PARP formation at 10 to 20 uM measured after 24 hrs by Western blot analysis; assay type: functional, cell-based; conditions: dose 10-20 µM
[4] = tested on: Mus musculus; assay: Anti-alzheimer activity against triple transgenic mouse alzheimer disease model assessed as latency time at 30 mg/kg, po administered daily for 2.2 months and measured after 122 to 123 days by passive avoidance test (reference value: 31.3+/-6.9 sec); assay type: functional; conditions: time 122-123 day
[5] = tested on: Mus musculus; assay: Anti-alzheimer activity against triple transgenic mouse alzheimer disease model assessed as time spent in platform quadrant at 30 mg/kg, po administered daily for 2.2 months and measured after 137 days by Morris water maze test (reference value: 12.26+/-2.34 sec); assay type: functional; conditions: time 137 day
[6] = tested on: Mus musculus; assay: Anti-alzheimer activity against triple transgenic mouse alzheimer disease model assessed as time spent in target zone at 30 mg/kg, po administered daily for 2.2 months and measured after 137 days by Morris water maze test (reference value: 4.48+/-1.63 sec); assay type: functional; conditions: time 137 day
[7] = tested on: Mus musculus; assay: Anti-alzheimer activity against triple transgenic mouse alzheimer disease model assessed as escape latency time at 60 mg/kg, po measured upto 5 days by Morris water maze test (reference value: 58.62+/-1.15 sec); assay type: functional; conditions: time <= 5 day
[8] = tested on: Mus musculus; assay: Anti-alzheimer activity against triple transgenic mouse alzheimer disease model assessed as path length at 30 mg/kg, po measured upto 5 days by Morris water maze test (reference value: 608.85+/-39.27 cm); assay type: functional; conditions: time <= 5 day
[9] = tested on: Mus musculus; assay: Anti-alzheimer activity against APP/PS1 dE9 double transgenic mouse model assessed as time spent in platform quadrant at 30 mg/kg, po administered daily for 2 months and measured after 74 days by Morris water maze test (reference value: 10.50+/-4.15 sec); assay type: functional; conditions: time 74 day
[10] = tested on: Mus musculus; assay: Anti-alzheimer activity against APP/PS1 dE9 double transgenic mouse model assessed as time spent in platform quadrant at 60 mg/kg, po administered daily for 2 months and measured after 74 days by Morris water maze test (reference value: 10.50+/-4.15 sec); assay type: functional; conditions: time 74 day
[11] = tested on: Mus musculus; assay: Anti-alzheimer activity against APP/PS1 dE9 double transgenic mouse model assessed as time spent in target zone at 30 mg/kg, po administered daily for 2 months and measured after 74 days by Morris water maze test (reference value: 6.76+/-3.20 sec); assay type: functional; conditions: time 74 day
[12] = tested on: Mus musculus; assay: Anti-alzheimer activity against triple transgenic mouse alzheimer disease model assessed as reduction in tau phosphorylation level at S202 residue in hippocampal tissue at 30 to 60 mg/kg by Western blot analysis; assay type: functional, organism-based; conditions: dose 30-60 mg/kg

## CNC(=O)Oc1cc(F)c2nc(-c3ccc4ccccc4c3)n(-c3ccnc(N[C@H]4CCCN(C(=O)C5CC5)C4)n3)c2c1
[1]
  Papp A→B: 17 nm/s
[2]
  fold change (FC): 2
[3]
  inhibition: Active
[4]
  Time: 31.6 s
[5]
  Time: 23.4 s
[6]
  Time: 17.1 s
[7]
  Time: 25.72 s
[8]
  Activity: 402.59 cm
[9]
  Time: 16.44 s
[10]
  Time: 21.78 s
[11]
  Time: 11.4 s
[12]
  Activity: Active
